*1 amine or outer side, *2 acyl side, *3 side chain or, on linkers, in order; H or OH if unused. Where a SMILES comes first, the peptide text is derived from it. Side-chain parts run from the residue outwards. [ ]: non-standard residue; d: D form. The star is where a group is joined. C20 diacid = O=C(O)CCCCCCCCCCCCCCCCCCC(=O)*; C18 diacid = O=C(O)CCCCCCCCCCCCCCCCC(=O)*; γGlu = O=C(O)[C@H](CCC(=O)[*:2])N[*:1]; 4Pal = N[C@@H](Cc1ccncc1)C(=O)O; αMeL = CC(C)C[C@](C)(N)C(=O)O; Orn = NCCC[C@H](N)C(=O)O; AEEA = NCCOCCOCC(=O)O; Aib = CC(C)(N)C(=O)O
Legend:
[1] = target: T1, human glucose-dependent insulinotropic peptide receptor (GIPR) (Homo sapiens, UniProt P48546); experiment: cAMP functional assay (HTRF) in HEK293 cells in presence of 0.1% casein; type: cell-based; details: HEK293 cells expressing human GIPR, geometric mean, read-out: hGIPR cAMP Rel EC50 nM (SEM, n)
T1 construct: expressed in transfected cells; host or cells: HEK293
T1 sequence (P48546 22-466): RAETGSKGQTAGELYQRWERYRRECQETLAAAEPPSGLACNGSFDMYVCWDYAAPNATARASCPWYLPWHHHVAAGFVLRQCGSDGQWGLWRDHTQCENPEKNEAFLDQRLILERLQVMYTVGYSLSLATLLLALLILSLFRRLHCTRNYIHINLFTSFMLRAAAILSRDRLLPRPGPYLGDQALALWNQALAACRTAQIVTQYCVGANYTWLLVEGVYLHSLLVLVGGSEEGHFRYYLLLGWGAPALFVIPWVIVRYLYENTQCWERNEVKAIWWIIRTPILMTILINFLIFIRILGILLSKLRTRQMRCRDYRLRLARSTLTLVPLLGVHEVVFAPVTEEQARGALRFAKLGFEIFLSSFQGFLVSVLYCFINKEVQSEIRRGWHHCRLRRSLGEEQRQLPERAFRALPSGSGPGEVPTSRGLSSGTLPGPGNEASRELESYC

[2] = target: T2, human glucagon receptor (GcgR) (Homo sapiens, UniProt P47871); experiment: as above; type: cell-based; details: HEK293 cells expressing human GcgR, geometric mean, read-out: hGcgR cAMP Rel EC50 nM (SEM, n)
T2 construct: expressed in transfected cells; host or cells: HEK293
T2 sequence (P47871 26-477): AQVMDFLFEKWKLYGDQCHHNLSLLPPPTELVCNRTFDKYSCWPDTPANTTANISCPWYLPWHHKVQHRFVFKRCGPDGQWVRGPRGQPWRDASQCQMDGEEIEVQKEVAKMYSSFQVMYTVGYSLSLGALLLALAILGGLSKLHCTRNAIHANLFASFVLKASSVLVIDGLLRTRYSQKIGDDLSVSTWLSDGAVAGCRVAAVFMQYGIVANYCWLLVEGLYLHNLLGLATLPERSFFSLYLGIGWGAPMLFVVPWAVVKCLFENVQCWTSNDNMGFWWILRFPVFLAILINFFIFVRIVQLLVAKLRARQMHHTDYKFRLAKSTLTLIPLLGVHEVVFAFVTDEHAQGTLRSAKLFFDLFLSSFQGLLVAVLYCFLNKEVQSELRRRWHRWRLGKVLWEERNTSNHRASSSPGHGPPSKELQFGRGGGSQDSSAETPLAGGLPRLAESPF

Row | Compound | EC50 [1] | EC50 [2]
1 | CC[C@H](C)[C@H](NC(=O)[C@H](CCCN)NC(=O)[C@H](CC(=O)O)NC(=O)[C@H](CC(C)C)NC(=O)[C@](C)(CC(C)C)NC(=O)[C@@H](NC(=O)[C@H](CO)NC(=O)[C@H](Cc1ccc(O)cc1)NC(=O)[C@H](CC(=O)O)NC(=O)[C@H](CO)NC(=O)[C@@H](NC(=O)[C@H](Cc1ccccc1)NC(=O)[C@@H](NC(=O)CNC(=O)[C@H](CCC(=O)O)NC(=O)C(C)(C)NC(=O)[C@@H](N)Cc1ccc(O)cc1)[C@@H](C)O)[C@@H](C)CC)[C@@H](C)CC)C(=O)N[C@@H](Cc1c[nH]cn1)C(=O)N[C@@H](CCC(N)=O)C(=O)NC(C)(C)C(=O)N[C@@H](CCC(=O)O)C(=O)N[C@@H](Cc1ccccc1)C(=O)N[C@H](C(=O)N[C@@H](CCC(=O)O)C(=O)N[C@@H](Cc1ccc(O)cc1)C(=O)N[C@@H](CCCCNC(=O)COCCOCCNC(=O)COCCOCCNC(=O)CC[C@H](NC(=O)CCCCCCCCCCCCCCCCCCC(=O)O)C(=O)O)C(=O)N[C@@H](CC(C)C)C(=O)N[C@@H](CCC(=O)O)C(=O)N[C@@H](CCC(N)=O)C(=O)NCC(=O)N1CCC[C@H]1C(=O)N[C@@H](CO)C(=O)N[C@@H](CO)C(=O)NCC(=O)N[C@@H](C)C(=O)N1CCC[C@H]1C(=O)N1CCC[C@H]1C(=O)N1CCC[C@H]1C(=O)N[C@@H](CO)C(N)=O)C(C)C [Example 106] (H-Y[Aib]EGTFISDYSI[αMeL]LD[Orn]IHQ[Aib]EFVEYK([AEEA-AEEA-γGlu-C20 diacid])LEQGPSSGAPPPS-NH2) | 0.014 nM | > 5000 nM
2 | CC[C@H](C)[C@H](NC(=O)[C@H](CCCN)NC(=O)[C@H](CC(=O)O)NC(=O)[C@H](CC(C)C)NC(=O)[C@](C)(CC(C)C)NC(=O)[C@@H](NC(=O)[C@H](CO)NC(=O)[C@H](Cc1ccc(O)cc1)NC(=O)[C@H](CC(=O)O)NC(=O)[C@H](CO)NC(=O)[C@@H](NC(=O)[C@H](Cc1ccccc1)NC(=O)[C@@H](NC(=O)CNC(=O)[C@H](CCC(=O)O)NC(=O)C(C)(C)NC(=O)[C@@H](N)Cc1ccc(O)cc1)[C@@H](C)O)[C@@H](C)CC)[C@@H](C)CC)C(=O)N[C@@H](Cc1c[nH]cn1)C(=O)N[C@@H](CCC(N)=O)C(=O)NC(C)(C)C(=O)N[C@@H](CCC(=O)O)C(=O)N[C@@H](Cc1ccccc1)C(=O)N[C@H](C(=O)N[C@@H](CCC(=O)O)C(=O)N[C@@H](Cc1ccc(O)cc1)C(=O)N[C@@H](CCCCNC(=O)COCCOCCNC(=O)COCCOCCNC(=O)CC[C@H](NC(=O)CCCCCCCCCCCCCCCCCCC(=O)O)C(=O)O)C(=O)N[C@@H](CC(C)C)C(=O)N[C@@H](CCC(=O)O)C(=O)NCC(=O)NCC(=O)N1CCC[C@H]1C(=O)N[C@@H](CO)C(=O)N[C@@H](CO)C(=O)NCC(=O)N[C@@H](C)C(=O)N1CCC[C@H]1C(=O)N1CCC[C@H]1C(=O)N1CCC[C@H]1C(=O)N[C@@H](CO)C(N)=O)C(C)C [Example 107] (H-Y[Aib]EGTFISDYSI[αMeL]LD[Orn]IHQ[Aib]EFVEYK([AEEA-AEEA-γGlu-C20 diacid])LEGGPSSGAPPPS-NH2) | 0.0199 nM | > 5000 nM
3 | CC[C@H](C)[C@H](NC(=O)[C@H](CCCN)NC(=O)[C@H](CC(=O)O)NC(=O)[C@H](CC(C)C)NC(=O)[C@](C)(CC(C)C)NC(=O)[C@@H](NC(=O)[C@H](CO)NC(=O)[C@H](Cc1ccc(O)cc1)NC(=O)[C@H](CC(=O)O)NC(=O)[C@H](CO)NC(=O)[C@@H](NC(=O)[C@H](Cc1ccccc1)NC(=O)[C@@H](NC(=O)CNC(=O)[C@H](CCC(=O)O)NC(=O)C(C)(C)NC(=O)[C@@H](N)Cc1ccc(O)cc1)[C@@H](C)O)[C@@H](C)CC)[C@@H](C)CC)C(=O)N[C@@H](Cc1c[nH]cn1)C(=O)N[C@@H](CCC(N)=O)C(=O)NC(C)(C)C(=O)N[C@@H](CC(=O)O)C(=O)N[C@@H](Cc1ccccc1)C(=O)N[C@H](C(=O)N[C@@H](CCC(=O)O)C(=O)N[C@@H](Cc1ccncc1)C(=O)N[C@@H](CCCCNC(=O)COCCOCCNC(=O)COCCOCCNC(=O)CC[C@H](NC(=O)CCCCCCCCCCCCCCCCCCC(=O)O)C(=O)O)C(=O)N[C@@H](CC(C)C)C(=O)N[C@@H](CCC(=O)O)C(=O)NCC(=O)NCC(=O)N1CCC[C@H]1C(=O)N[C@@H](CO)C(=O)N[C@@H](CO)C(=O)NCC(=O)N[C@@H](C)C(=O)N1CCC[C@H]1C(=O)N1CCC[C@H]1C(=O)N1CCC[C@H]1C(=O)N[C@@H](CO)C(N)=O)C(C)C [Example 108] (H-Y[Aib]EGTFISDYSI[αMeL]LD[Orn]IHQ[Aib]DFVE[4Pal]K([AEEA-AEEA-γGlu-C20 diacid])LEGGPSSGAPPPS-NH2) | 0.0088 nM | > 5000 nM
4 | CC[C@H](C)[C@H](NC(=O)[C@H](CCCCN)NC(=O)[C@H](CC(=O)O)NC(=O)[C@H](CC(C)C)NC(=O)[C@](C)(CC(C)C)NC(=O)[C@@H](NC(=O)[C@H](CO)NC(=O)[C@H](Cc1ccc(O)cc1)NC(=O)[C@H](CC(=O)O)NC(=O)[C@H](CO)NC(=O)[C@@H](NC(=O)[C@H](Cc1ccccc1)NC(=O)[C@@H](NC(=O)CNC(=O)[C@H](CCC(=O)O)NC(=O)C(C)(C)NC(=O)[C@@H](N)Cc1ccc(O)cc1)[C@@H](C)O)[C@@H](C)CC)[C@@H](C)CC)C(=O)N[C@@H](Cc1c[nH]cn1)C(=O)N[C@@H](CCC(N)=O)C(=O)NC(C)(C)C(=O)N[C@@H](CC(=O)O)C(=O)N[C@@H](Cc1ccccc1)C(=O)N[C@H](C(=O)N[C@@H](CCC(=O)O)C(=O)N[C@@H](Cc1ccncc1)C(=O)N[C@@H](CCCCNC(=O)COCCOCCNC(=O)COCCOCCNC(=O)CC[C@H](NC(=O)CCCCCCCCCCCCCCCCCCC(=O)O)C(=O)O)C(=O)N[C@@H](CC(C)C)C(=O)N[C@@H](CCC(=O)O)C(=O)NCC(=O)NCC(=O)N1CCC[C@H]1C(=O)N[C@@H](CO)C(=O)N[C@@H](CO)C(=O)NCC(=O)N[C@@H](C)C(=O)N1CCC[C@H]1C(=O)N1CCC[C@H]1C(=O)N1CCC[C@H]1C(=O)N[C@@H](CO)C(N)=O)C(C)C [Example 109] (H-Y[Aib]EGTFISDYSI[αMeL]LDKIHQ[Aib]DFVE[4Pal]K([AEEA-AEEA-γGlu-C20 diacid])LEGGPSSGAPPPS-NH2) | 0.0113 nM | > 5000 nM
5 | CC[C@H](C)[C@H](NC(=O)[C@H](CCCCN)NC(=O)[C@H](CC(=O)O)NC(=O)[C@H](CC(C)C)NC(=O)[C@](C)(CC(C)C)NC(=O)[C@@H](NC(=O)[C@H](CO)NC(=O)[C@H](Cc1ccc(O)cc1)NC(=O)[C@H](CC(=O)O)NC(=O)[C@H](CO)NC(=O)[C@@H](NC(=O)[C@H](Cc1ccccc1)NC(=O)[C@@H](NC(=O)CNC(=O)[C@H](CCC(=O)O)NC(=O)C(C)(C)NC(=O)[C@@H](N)Cc1ccc(O)cc1)[C@@H](C)O)[C@@H](C)CC)[C@@H](C)CC)C(=O)N[C@@H](Cc1c[nH]cn1)C(=O)N[C@@H](CCC(N)=O)C(=O)NC(C)(C)C(=O)N[C@@H](CC(=O)O)C(=O)N[C@@H](Cc1ccccc1)C(=O)N[C@H](C(=O)N[C@@H](CCC(=O)O)C(=O)N[C@@H](Cc1ccncc1)C(=O)N[C@@H](CCCCNC(=O)COCCOCCNC(=O)COCCOCCNC(=O)CC[C@H](NC(=O)CCCCCCCCCCCCCCCCC(=O)O)C(=O)O)C(=O)N[C@@H](CC(C)C)C(=O)N[C@@H](CCC(=O)O)C(=O)NCC(=O)NCC(=O)N1CCC[C@H]1C(=O)N[C@@H](CO)C(=O)N[C@@H](CO)C(=O)NCC(=O)N[C@@H](C)C(=O)N1CCC[C@H]1C(=O)N1CCC[C@H]1C(=O)N1CCC[C@H]1C(=O)N[C@@H](CO)C(N)=O)C(C)C [Example 110] (H-Y[Aib]EGTFISDYSI[αMeL]LDKIHQ[Aib]DFVE[4Pal]K([AEEA-AEEA-γGlu-C18 diacid])LEGGPSSGAPPPS-NH2) | 0.0071 nM | > 5000 nM
6 | CC[C@H](C)[C@H](NC(=O)[C@H](CCCN)NC(=O)[C@H](CC(=O)O)NC(=O)[C@H](CC(C)C)NC(=O)[C@](C)(CC(C)C)NC(=O)[C@@H](NC(=O)[C@H](CO)NC(=O)[C@H](Cc1ccc(O)cc1)NC(=O)[C@H](CC(=O)O)NC(=O)[C@H](CO)NC(=O)[C@@H](NC(=O)[C@H](Cc1ccccc1)NC(=O)[C@@H](NC(=O)CNC(=O)[C@H](CCC(=O)O)NC(=O)C(C)(C)NC(=O)[C@@H](N)Cc1ccc(O)cc1)[C@@H](C)O)[C@@H](C)CC)[C@@H](C)CC)C(=O)N[C@@H](Cc1c[nH]cn1)C(=O)N[C@@H](CCC(N)=O)C(=O)NC(C)(C)C(=O)N[C@@H](CC(=O)O)C(=O)N[C@@H](Cc1ccccc1)C(=O)N[C@H](C(=O)N[C@@H](CCC(=O)O)C(=O)N[C@@H](Cc1ccncc1)C(=O)N[C@@H](CCCCNC(=O)COCCOCCNC(=O)COCCOCCNC(=O)CC[C@H](NC(=O)CCCCCCCCCCCCCCCCC(=O)O)C(=O)O)C(=O)N[C@@H](CC(C)C)C(=O)N[C@@H](CCC(=O)O)C(=O)NCC(=O)NCC(=O)N1CCC[C@H]1C(=O)N[C@@H](CO)C(=O)N[C@@H](CO)C(=O)NCC(=O)N[C@@H](C)C(=O)N1CCC[C@H]1C(=O)N1CCC[C@H]1C(=O)N1CCC[C@H]1C(=O)N[C@@H](CO)C(N)=O)C(C)C [Example 111] (H-Y[Aib]EGTFISDYSI[αMeL]LD[Orn]IHQ[Aib]DFVE[4Pal]K([AEEA-AEEA-γGlu-C18 diacid])LEGGPSSGAPPPS-NH2) | 0.0065 nM | > 5000 nM

— US12723063B2, “GIPR-agonist compounds” (Eli Lilly and Company, priority 2019, dated 2026)
